Assay results taken from US20030026852A1, “Molecular iodine pharmaceutical composition” (SYMBOLLON CORPORATION, priority 2001, published 2003).

How the values were obtained:
[1] = stability of a solution of molecular iodine in mineral oil at 40° C.; assay type: physicochemical
Procedure: The stability of a solution of molecular iodine in oil was measured. Crystals of elemental iodine were dissolved at room temperature in mineral oil. The concentrations of molecular iodine were approximately 0.6, 3.0 and 6.0 mg/mL. The absorbance was determined at 522 nm as a measure of the concentration of molecular iodine. Samples were stored in 500 mL amber glass bottles (Fisher Cat. No. 05-719-466) with Teflon lined screw-tops. The screw tops contained a septum to sample the fluids using a syringe without opening the bottle. The bottles were stored in an incubator at 40° C.
Samples were analyzed monthly to determine if there was a loss of molecular iodine. On the day of an analysis, a bottle was removed from the incubator, placed into room-temperature water covering approximately ¾ of the bottle, and allowed to cool for at least 6 hours. A sample was removed with a glass syringe and its absorbance was determined at 522 nm.

[2] = interaction of molecular iodine with mineral oil, UV-visible absorbance; assay type: physicochemical; settings: elemental iodine dissolved in mineral oil, 300-600 nm
Procedure: The interaction of molecular iodine with mineral oil was evaluated. The following stock solutions were prepared for this experiment: 0.050 grams and 1.001 grams of elemental iodine crystals dissolved into about 80 ml of mineral oil in two different 100-ml flasks, and then filled to 100 ml with mineral oil. The absorbance spectrum between 300 and 600 nm for various mixtures of these two stock solutions were made in a UV/V is scanning spectrophotometer (Schimadzu 1125). The absorbance spectrums were analyzed and the extinction coefficient was calculated at appropriate wavelengths.
The UV-visible spectra of iodine-in-mineral oil presents two peaks in the range of 300-600 nm; one peak is at 302 nm and the other is at 522 nm (the maximum absorbance is at 522 nm). The absorbance is proportional to concentration as predicted by Beer's Law. […] The two peaks are at 302 nm and 522 nm and are slightly variable in the test concentration range. The extinction coefficients (moles per 1000 grams)^−1 (per cm)^−1) at 302 and 522 nm were calculated to be 219 and 905 respectively.

[3] = system: women; assay: six month study of molecular iodine in 111 women (IND #56,523); assay type: in vivo; settings: 111 women, 0, 1.5, 3.0 or 6.0 mg per day for six months, in situ generation of molecular iodine
Procedure: To determine the potential for molecular iodine to cause hyperthyroidism or hypothyroidism 111 women daily were dosed with either 0, 1.5, 3.0 or 6.0 mg of molecular iodine per day for six months. This study was performed under the guidance of the FDA (IND #56,523). The dosage form used relied upon in situ generation of molecular iodine as described in U.S. Pat. No. 5,885,592 as opposed to the aqueous iodine therapy of Table 5. The total exposure to molecular iodine in this study was 3.619 subject years.

[4] = administered orally; cited from earlier work
[5] = system: mammalian thyroid parameters; settings: orally administered; cited from earlier work

SMILES | Percentage of Initial Absorbance (OD522nm) ([1]; 0.6 mg/mL I2 in mineral oil, Day 14) [%] | Percentage of Initial Absorbance (OD522nm) ([1]; 0.6 mg/mL I2 in mineral oil, Day 32) [%] | Percentage of Initial Absorbance (OD522nm) ([1]; 0.6 mg/mL I2 in mineral oil, Day 56) [%] | Percentage of Initial Absorbance (OD522nm) ([1]; 0.6 mg/mL I2 in mineral oil, Day 97) [%] | Percentage of Initial Absorbance (OD522nm) ([1]; 0.6 mg/mL I2 in mineral oil, Day 143) [%] | Percentage of Initial Absorbance (OD522nm) ([1]; 3.0 mg/mL I2 in mineral oil, Day 14) [%] | Percentage of Initial Absorbance (OD522nm) ([1]; 3.0 mg/mL I2 in mineral oil, Day 32) [%] | Percentage of Initial Absorbance (OD522nm) ([1]; 3.0 mg/mL I2 in mineral oil, Day 56) [%] | Percentage of Initial Absorbance (OD522nm) ([1]; 3.0 mg/mL I2 in mineral oil, Day 97) [%] | Percentage of Initial Absorbance (OD522nm) ([1]; 3.0 mg/mL I2 in mineral oil, Day 143) [%] | Percentage of Initial Absorbance (OD522nm) ([1]; 6.0 mg/mL I2 in mineral oil, Day 14) [%] | Percentage of Initial Absorbance (OD522nm) ([1]; 6.0 mg/mL I2 in mineral oil, Day 32) [%] | Percentage of Initial Absorbance (OD522nm) ([1]; 6.0 mg/mL I2 in mineral oil, Day 56) [%] | Percentage of Initial Absorbance (OD522nm) ([1]; 6.0 mg/mL I2 in mineral oil, Day 97) [%] | Percentage of Initial Absorbance (OD522nm) ([1]; 6.0 mg/mL I2 in mineral oil, Day 143) [%] | change of absorbance with time (stability in mineral oil) [2] | hyperthyroidism or hypothyroidism [3] | treatment-emergent adverse events, laboratory parameters, vital signs versus dose [3] | oral toxicity compared with iodide [4] | concentration negatively affecting mammalian thyroid parameters, fold less than for a comparable effect from molecular iodine [5] [fold]
II [I2, molecular iodine] | 99.5 | 99.1 | 98.2 | 97.8 | 96.4 | 100.6 | 100.5 | 100.4 | 100.1 | 100.8 | 100.3 | 100.2 | 99.2 | 101.4 | 100.7 | did not change with time | No hyperthyroidism or hypothyroidism was observed | not associated with increases in incidence, severity and causality of treatment-emergent adverse events or clinically significant changes in laboratory parameters or vital signs | less toxic than iodide | –
I [iodide] | – | – | – | – | – | – | – | – | – | – | – | – | – | – | – | – | – | – | – | 10
